Measured values taken from PubChem BioAssay (NCI).
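Cultured in 96-well plates, cells were exposed to test compound for 48 hours across five concentrations. TGI: concentration producing complete growth inhibition.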

How the values were obtained:
Test in all cases: NCI tumour cell line growth inhibition, 48 h
LOX IMVI melanoma = tested on: LOX IMVI melanoma
SW-620 colon = tested on: SW-620 colon
UACC-257 melanoma = tested on: UACC-257 melanoma
DMS 273 small cell lung = tested on: DMS 273 small cell lung
MOLT-4 leukemia = tested on: MOLT-4 leukemia
HL-60(TB) leukemia = tested on: HL-60(TB) leukemia
ACHN renal = tested on: ACHN renal
M19-MEL melanoma = tested on: M19-MEL melanoma
CAKI-1 renal = tested on: CAKI-1 renal
HOP-92 NSCLC = tested on: HOP-92 NSCLC
LXFL 529 NSCLC = tested on: LXFL 529 NSCLC
786-0 renal = tested on: 786-0 renal
DLD-1 colon = tested on: DLD-1 colon
SNB-19 CNS = tested on: SNB-19 CNS
OVCAR-5 ovarian = tested on: OVCAR-5 ovarian
SR leukemia = tested on: SR leukemia
MALME-3M melanoma = tested on: MALME-3M melanoma
NCI-H460 lung = tested on: NCI-H460 lung
A549 NSCLC = tested on: A549 NSCLC
NCI-H226 lung = tested on: NCI-H226 lung
SF-295 CNS = tested on: SF-295 CNS
SNB-75 CNS = tested on: SNB-75 CNS
SNB-78 CNS = tested on: SNB-78 CNS
NCI-H23 lung = tested on: NCI-H23 lung
SF-539 CNS = tested on: SF-539 CNS
SK-MEL-5 melanoma = tested on: SK-MEL-5 melanoma
SK-MEL-28 melanoma = tested on: SK-MEL-28 melanoma
M14 melanoma = tested on: M14 melanoma
CCRF-CEM leukemia = tested on: CCRF-CEM leukemia
HCT-116 colon = tested on: HCT-116 colon
OVCAR-3 ovarian = tested on: OVCAR-3 ovarian
HT29 colon = tested on: HT29 colon
HCT-15 colon = tested on: HCT-15 colon
SN12C renal = tested on: SN12C renal
NCI-H522 lung = tested on: NCI-H522 lung
RPMI-8226 leukemia = tested on: RPMI-8226 leukemia
KM20L2 colon = tested on: KM20L2 colon
HCC-2998 colon = tested on: HCC-2998 colon
SF-268 CNS = tested on: SF-268 CNS
HOP-62 NSCLC = tested on: HOP-62 NSCLC
DMS 114 small cell lung = tested on: DMS 114 small cell lung
XF 498 CNS = tested on: XF 498 CNS
COLO 205 colon = tested on: COLO 205 colon
RXF 393 renal = tested on: RXF 393 renal
OVCAR-8 ovarian = tested on: OVCAR-8 ovarian
KM12 colon = tested on: KM12 colon
RXF-631 renal = tested on: RXF-631 renal
SK-OV-3 ovarian = tested on: SK-OV-3 ovarian
UO-31 renal = tested on: UO-31 renal
K-562 leukemia = tested on: K-562 leukemia
UACC-62 melanoma = tested on: UACC-62 melanoma
OVCAR-4 ovarian = tested on: OVCAR-4 ovarian
U251 CNS = tested on: U251 CNS
IGROV1 ovarian = tested on: IGROV1 ovarian
P388 leukemia = tested on: P388 leukemia
MCF7 breast = tested on: MCF7 breast
A498 renal = tested on: A498 renal
P388/ADR leukemia = tested on: P388/ADR leukemia
HOP-18 NSCLC = tested on: HOP-18 NSCLC
NCI/ADR-RES ovarian = tested on: NCI/ADR-RES ovarian
EKVX NSCLC = tested on: EKVX NSCLC
SN12K1 renal = tested on: SN12K1 renal
SK-MEL-2 melanoma = tested on: SK-MEL-2 melanoma

CC(O)c1ccc(C(O)/C(=N\NC(=O)c2ccncc2)c2nc3ccc([N+](=O)[O-])cc3[nH]c2=O)cc1 (stereo unspecified)
TGI (LOX IMVI melanoma): > 100 µM
TGI (SW-620 colon): > 100 µM
TGI (UACC-257 melanoma): > 100 µM
TGI (DMS 273 small cell lung): > 100 µM
TGI (MOLT-4 leukemia): > 100 µM
TGI (HL-60(TB) leukemia): > 100 µM
TGI (ACHN renal): > 100 µM
TGI (M19-MEL melanoma): > 100 µM
TGI (CAKI-1 renal): > 100 µM
TGI (HOP-92 NSCLC): > 100 µM
TGI (LXFL 529 NSCLC): > 100 µM
TGI (786-0 renal): > 100 µM
TGI (DLD-1 colon): > 100 µM
TGI (SNB-19 CNS): > 100 µM
TGI (OVCAR-5 ovarian): > 100 µM
TGI (SR leukemia): > 100 µM
TGI (MALME-3M melanoma): > 100 µM
TGI (NCI-H460 lung): > 100 µM
TGI (A549 NSCLC): > 100 µM
TGI (NCI-H226 lung): > 100 µM
TGI (SF-295 CNS): > 100 µM
TGI (SNB-75 CNS): > 100 µM
TGI (SNB-78 CNS): > 100 µM
TGI (NCI-H23 lung): > 100 µM
TGI (SF-539 CNS): > 100 µM
TGI (SK-MEL-5 melanoma): > 100 µM
TGI (SK-MEL-28 melanoma): > 100 µM
TGI (M14 melanoma): > 100 µM
TGI (CCRF-CEM leukemia): > 100 µM
TGI (HCT-116 colon): > 100 µM
TGI (OVCAR-3 ovarian): > 100 µM
TGI (HT29 colon): > 100 µM
TGI (HCT-15 colon): > 100 µM
TGI (SN12C renal): > 100 µM
TGI (NCI-H522 lung): > 100 µM
TGI (RPMI-8226 leukemia): > 100 µM
TGI (KM20L2 colon): > 100 µM
TGI (HCC-2998 colon): > 100 µM
TGI (SF-268 CNS): > 100 µM
TGI (HOP-62 NSCLC): > 100 µM
TGI (DMS 114 small cell lung): 98.2 µM
TGI (XF 498 CNS): > 100 µM
TGI (COLO 205 colon): > 100 µM
TGI (RXF 393 renal): > 100 µM
TGI (OVCAR-8 ovarian): > 100 µM
TGI (KM12 colon): > 100 µM
TGI (RXF-631 renal): > 100 µM
TGI (SK-OV-3 ovarian): > 100 µM
TGI (UO-31 renal): > 100 µM
TGI (K-562 leukemia): > 100 µM
TGI (UACC-62 melanoma): > 100 µM
TGI (OVCAR-4 ovarian): > 100 µM
TGI (U251 CNS): > 100 µM
TGI (IGROV1 ovarian): > 100 µM

CN(C)CCNC(=O)c1cccc2[nH]c(-c3ccc(Cl)cc3)nc12
TGI (LOX IMVI melanoma): 13.8 µM
TGI (P388 leukemia): 14.5 µM
TGI (SW-620 colon): 18.3 µM
TGI (MCF7 breast): 15.8 µM
TGI (UACC-257 melanoma): 20.4 µM
TGI (DMS 273 small cell lung): 14.3 µM
TGI (MOLT-4 leukemia): 5.5 µM
TGI (HL-60(TB) leukemia): 12 µM
TGI (A498 renal): 24 µM
TGI (M19-MEL melanoma): 19.7 µM
TGI (CAKI-1 renal): 12.8 µM
TGI (HOP-92 NSCLC): 17 µM
TGI (DLD-1 colon): 24.5 µM
TGI (SNB-19 CNS): 31.5 µM
TGI (OVCAR-5 ovarian): 26.4 µM
TGI (MALME-3M melanoma): 19.9 µM
TGI (NCI-H460 lung): 13.2 µM
TGI (P388/ADR leukemia): 18.4 µM
TGI (A549 NSCLC): 17.7 µM
TGI (NCI-H226 lung): 14.4 µM
TGI (SF-295 CNS): 21.3 µM
TGI (HOP-18 NSCLC): 61.1 µM
TGI (SNB-75 CNS): 15.3 µM
TGI (SNB-78 CNS): 37.7 µM
TGI (NCI-H23 lung): 21.5 µM
TGI (SF-539 CNS): 16.9 µM
TGI (NCI/ADR-RES ovarian): 21 µM
TGI (SK-MEL-5 melanoma): 16.7 µM
TGI (SK-MEL-28 melanoma): 31.9 µM
TGI (CCRF-CEM leukemia): 35.7 µM
TGI (HCT-116 colon): 13.8 µM
TGI (OVCAR-3 ovarian): 27.7 µM
TGI (HT29 colon): 16.6 µM
TGI (HCT-15 colon): 19.9 µM
TGI (SN12C renal): 19.4 µM
TGI (EKVX NSCLC): 34.3 µM
TGI (NCI-H522 lung): 19.9 µM
TGI (RPMI-8226 leukemia): 8.78 µM
TGI (KM20L2 colon): 18.6 µM
TGI (SN12K1 renal): 14.8 µM
TGI (HCC-2998 colon): 16.9 µM
TGI (SF-268 CNS): 38.4 µM
TGI (HOP-62 NSCLC): 22.5 µM
TGI (DMS 114 small cell lung): 21.7 µM
TGI (XF 498 CNS): 17.6 µM
TGI (COLO 205 colon): 9.29 µM
TGI (RXF 393 renal): 21.3 µM
TGI (OVCAR-8 ovarian): 20.8 µM
TGI (SK-MEL-2 melanoma): 26.5 µM
TGI (KM12 colon): 20.9 µM
TGI (SK-OV-3 ovarian): 25.1 µM
TGI (UO-31 renal): 12.1 µM
TGI (K-562 leukemia): 12.6 µM
TGI (UACC-62 melanoma): 17.5 µM
TGI (OVCAR-4 ovarian): 21.2 µM
TGI (U251 CNS): 18 µM
TGI (IGROV1 ovarian): 25.8 µM

COCC1N=C(c2cc(OC)c(OC)c(OC)c2-c2cc3c(cc2[C@@H](C)O)OCO3)O[C@H]1c1ccccc1 (stereo partly specified)
TGI (LOX IMVI melanoma): > 100 µM
TGI (P388 leukemia): > 100 µM
TGI (SW-620 colon): > 100 µM
TGI (MCF7 breast): > 100 µM
TGI (UACC-257 melanoma): > 100 µM
TGI (DMS 273 small cell lung): > 100 µM
TGI (MOLT-4 leukemia): > 100 µM
TGI (HL-60(TB) leukemia): > 100 µM
TGI (A498 renal): > 100 µM
TGI (M19-MEL melanoma): > 100 µM
TGI (CAKI-1 renal): > 100 µM
TGI (HOP-92 NSCLC): > 84.5 µM
TGI (DLD-1 colon): > 100 µM
TGI (SNB-19 CNS): > 100 µM
TGI (OVCAR-5 ovarian): > 100 µM
TGI (MALME-3M melanoma): > 100 µM
TGI (NCI-H460 lung): > 100 µM
TGI (P388/ADR leukemia): > 100 µM
TGI (A549 NSCLC): > 100 µM
TGI (NCI-H226 lung): > 100 µM
TGI (SF-295 CNS): > 100 µM
TGI (HOP-18 NSCLC): > 100 µM
TGI (SNB-75 CNS): > 72.3 µM
TGI (SNB-78 CNS): > 87.4 µM
TGI (NCI-H23 lung): > 100 µM
TGI (SF-539 CNS): > 100 µM
TGI (NCI/ADR-RES ovarian): > 95.7 µM
TGI (SK-MEL-5 melanoma): > 100 µM
TGI (SK-MEL-28 melanoma): > 100 µM
TGI (CCRF-CEM leukemia): > 100 µM
TGI (HCT-116 colon): > 100 µM
TGI (OVCAR-3 ovarian): > 100 µM
TGI (HT29 colon): > 100 µM
TGI (HCT-15 colon): > 100 µM
TGI (SN12C renal): > 100 µM
TGI (EKVX NSCLC): > 95.5 µM
TGI (NCI-H522 lung): > 100 µM
TGI (RPMI-8226 leukemia): > 100 µM
TGI (KM20L2 colon): > 100 µM
TGI (SN12K1 renal): > 100 µM
TGI (HCC-2998 colon): > 100 µM
TGI (SF-268 CNS): > 100 µM
TGI (HOP-62 NSCLC): > 100 µM
TGI (COLO 205 colon): > 100 µM
TGI (RXF 393 renal): > 91.6 µM
TGI (OVCAR-8 ovarian): > 100 µM
TGI (SK-MEL-2 melanoma): > 87.7 µM
TGI (KM12 colon): > 100 µM
TGI (SK-OV-3 ovarian): > 100 µM
TGI (UO-31 renal): > 100 µM
TGI (K-562 leukemia): > 100 µM
TGI (UACC-62 melanoma): > 100 µM
TGI (OVCAR-4 ovarian): > 100 µM
TGI (U251 CNS): > 100 µM
TGI (IGROV1 ovarian): > 100 µM
